Measurements reported in patent US10005739B2, “Quinazolinone and isoquinolinone derivative” (CHUGAI SEIYAKU KABUSHIKI KAISHA, priority 2013, dated 2018).

The molecules below were run against T1, DDR1 (Homo sapiens (Human), UniProt Q08345) (assay: Measurement of DDR1 enzyme inhibitory activity (phosphorylation of biotinylated peptide, time-resolved fluorescence)). Details: human DDR1 enzyme, biotinylated peptide phosphorylation; read-out: DDR1 enzyme inhibition assay IC50.
Type: biochemical
How it was run: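 Baculovirus-expressed human DDR1 phosphorylated a biotinylated peptide, and inhibition of that phosphorylation was measured. Phosphopeptide was detected by time-resolved fluorescence using europium cryptate–labelled anti-phosphotyrosine antibody with streptavidin-XL665.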

T1 sequence (Q08345 19-913): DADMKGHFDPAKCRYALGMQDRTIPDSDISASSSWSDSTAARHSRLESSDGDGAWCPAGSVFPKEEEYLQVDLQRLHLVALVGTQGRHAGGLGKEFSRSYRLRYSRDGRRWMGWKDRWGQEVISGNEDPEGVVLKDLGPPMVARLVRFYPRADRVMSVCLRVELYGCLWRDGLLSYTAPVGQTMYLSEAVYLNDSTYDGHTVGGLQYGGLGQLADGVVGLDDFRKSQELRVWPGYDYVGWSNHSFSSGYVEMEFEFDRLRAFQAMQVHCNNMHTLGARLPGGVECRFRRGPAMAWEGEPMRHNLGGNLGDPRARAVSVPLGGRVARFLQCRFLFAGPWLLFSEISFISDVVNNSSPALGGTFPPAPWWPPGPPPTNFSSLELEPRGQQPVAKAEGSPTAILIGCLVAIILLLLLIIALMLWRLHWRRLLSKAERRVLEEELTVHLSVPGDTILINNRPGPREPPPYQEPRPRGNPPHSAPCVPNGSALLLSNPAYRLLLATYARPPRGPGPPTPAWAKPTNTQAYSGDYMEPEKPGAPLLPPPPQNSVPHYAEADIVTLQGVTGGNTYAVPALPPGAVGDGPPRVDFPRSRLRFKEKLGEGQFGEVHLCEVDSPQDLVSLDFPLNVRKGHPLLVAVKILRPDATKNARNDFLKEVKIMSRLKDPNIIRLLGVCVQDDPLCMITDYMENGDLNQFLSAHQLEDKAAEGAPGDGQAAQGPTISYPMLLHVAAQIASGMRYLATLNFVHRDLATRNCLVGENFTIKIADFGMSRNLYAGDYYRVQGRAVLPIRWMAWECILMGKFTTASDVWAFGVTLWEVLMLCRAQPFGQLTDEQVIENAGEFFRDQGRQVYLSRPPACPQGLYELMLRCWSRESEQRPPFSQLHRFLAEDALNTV

Row | IC50 | SMILES
1 | 450 nM | CCSc1cc(Cl)c(C#N)cc1Nn1cnc2ccc(C(F)(F)F)cc2c1=O [Compound C-42, 2-Chloro-4-ethylsulfanyl-5-[[4-oxo-6-(trifluoromethyl)quinazolin-3-yl]amino]benzonitrile]
2 | 330 nM | CCOc1ccc(SCC)c(Nn2cnc3c(Br)cc(C(F)(F)F)cc3c2=O)c1 [Compound C-31, 8-Bromo-3-(5-ethoxy-2-ethylsulfanylanilino)-6-(trifluoromethyl)quinazolin-4-one]
3 | 150 nM | CCS(=O)(=O)c1ccc(Br)cc1Nn1cnc2c(Br)cc(C(F)(F)F)cc2c1=O [Compound C-26, 8-Bromo-3-(5-bromo-2-ethylsulfonylanilino)-6-(trifluoromethyl)quinazolin-4-one]
4 | 280 nM | CCSc1c(Cl)cc(Cl)cc1Nn1cnc2ccc(C(F)(F)F)cc2c1=O [Compound C-38, 3-(3,5-Dichloro-2-ethylsulfanylanilino)-6-(trifluoromethyl)quinazolin-4-one]
5 | 430 nM | CCS(=O)(=O)c1ccc(C#N)cc1Nn1cnc2cc(Br)c(OC(F)(F)F)cc2c1=O [Compound C-18, 3-[[7-bromo-4-oxo-6-(trifluoromethoxy)quinazolin-3-yl]amino]-4-ethylsulfonylbenzonitrile]
6 | 99 nM | CCSc1ccc(C#N)cc1Nn1cnc2ccc(C(F)(F)F)cc2c1=O [Compound C-9, 4-Ethylsulfanyl-3-[[4-oxo-6-(trifluoromethyl)quinazolin-3-yl]amino]benzonitrile]
7 | 140 nM | CCS(=O)(=O)c1c(Cl)cc(Cl)cc1Nn1cnc2ccc(C(F)(F)F)cc2c1=O [Compound C-39, 3-(3,5-Dichloro-2-ethylsulfonylanilino)-6-(trifluoromethyl)quinazolin-4-one]
8 | 6400 nM | CCS(=O)(=O)c1ccc(C#N)cc1Nn1cnc2ncc(Br)cc2c1=O [Compound C-8, 3-[(6-Bromo-4-oxopyrido[2,3-d]pyrimidin-3-yl)amino]-4-ethylsulfonylbenzonitrile]
9 | 400 nM | CCSc1ccc(Br)cc1Nn1cnc2c(Br)cc(OC(F)(F)F)cc2c1=O [Compound C-23, 8-Bromo-3-(5-bromo-2-ethylsulfanylanilino)-6-(trifluoromethoxy)quinazolin-4-one]
10 | 1100 nM | CCS(=O)(=O)c1ccc(Cl)cc1Cn1cnc2cc(C)c(Br)cc2c1=O [Compound E-6, 6-Bromo-3-[(5-chloro-2-ethylsulfonylphenyl)methyl]--7-methylquinazolin-4-one]
11 | 950 nM | CCSc1ccc(Cl)cc1Cn1cnc2cc(C)c(Br)cc2c1=O [Compound E-5, 6-Bromo-3-[(5-chloro-2-ethylsulfanylphenyl)methyl]-7-methylquinazolin-4-one]

More lines, now with the values behind:

Row | SMILES | IC50
12 | CC#Cc1ccc2ncn(Nc3cc(Cl)ccc3S(=O)(=O)CC)c(=O)c2c1 [Compound A-65, 3-(5-Chloro-2-ethylsulfonylanilino)-6-prop-1-ynylquinazolin-4-one] | 3110 nM
13 | CCSc1ccc(Cl)cc1Nn1cnc2cc(Br)c(C)cc2c1=O [Compound A-5, 7-Bromo-3-(5-chloro-2-ethylsulfanylanilino)-6-methylquinazolin-4-one] | 880 nM
14 | CCS(=O)(=O)c1ccc(Cl)cc1Nn1cnc2cnc(F)cc2c1=O [Compound A-20, 3-(5-Chloro-2-ethylsulfonylanilino)-6-fluoropyrido[3,4-d]pyrimidin-4-one] | 7640 nM
15 | CCSc1ccc(Cl)cc1Nn1cnc2c(Cl)cc(C(F)(F)F)cc2c1=O [Compound A-11, 8-Chloro-3-(5-chloro-2-ethylsulfanylanilino)-6-(trifluoromethyl)quinazolin-4-one] | 400 nM
16 | CCS(=O)(=O)c1ccc(Cl)cc1Nn1cnc2ccc(I)cc2c1=O [Compound A-61, 3-(5-Chloro-2-ethylsulfonylanilino)-6-iodoquinazolin-4-one] | 290 nM
17 | CCCS(=O)(=O)c1ccc(Cl)cc1Nn1cnc2c(Br)cc(C)cc2c1=O [Compound B-4, 8-Bromo-3-(5-chloro-2-propylsulfonylanilino)-6-methylquinazolin-4-one] | 110 nM
18 | CCCc1ccc(Cl)cc1Nn1cnc2ccc(OC(F)(F)F)cc2c1=O [Compound B-17, 3-(5-Chloro-2-propylanilino)-6-(trifluoromethoxy)quinazolin-4-one] | 410 nM

Same assay, conditions: read-out: DDR1 enzyme inhibition assay IC50

Row | SMILES | IC50
19 | CCS(=O)(=O)c1ccc(Cl)cc1Cn1cnc2cc(CN3CC[C@@H](N)C3)c(Br)cc2c1=O [Compound J-7, 7-[[(3R)-3-aminopyrrolidin-1-yl]methyl]-6-bromo-3-[(5-chloro-2-ethylsulfonylphenyl)methyl]quinazolin-4-one] | 170 nM
20 | CCS(=O)(=O)c1ccc(Cl)cc1Cn1cnc2c(Br)c(CN3CCN(C(C)C)CC3)c(Br)cc2c1=O [Compound L-12, 6,8-Dibromo-3-[(5-chloro-2-ethylsulfonylphenyl)methyl]-7-[(4-propan-2-ylpiperazin-1-yl)methyl]quinazolin-4-one] | 200 nM
21 | CCS(=O)(=O)c1ccc(Cl)cc1Cn1cnc2cc(CN3CC[C@H](N)C3)c(Br)cc2c1=O [Compound J-8, 7-[[(3S)-3-Aminopyrrolidin-1-yl]methyl]-6-bromo-3-[(5-chloro-2-ethylsulfonylphenyl)methyl]quinazolin-4-one] | 140 nM

The molecules below were run against T1, DDR1 (assay: Measurement of DDR1 binding activity (LanthaScreen Eu Kinase Binding Assay)). Details: not given.
Description: 2. Measurement of DDR1 Binding Activity
DDR1 binding activity was measured using the LanthaScreen (Registered trademark) Eu Kinase Binding Assay (manufactured by Life Technologies Corporation). […] After one-hour reaction at room temperature, the fluorescence resonance energy transfer was measured.

Row | SMILES | IC50
22 | CCS(=O)(=O)c1ccc(Cl)cc1Cn1cnc2c(Cl)c(CO)c(C(F)(F)F)cc2c1=O [Compound K-26, 8-Chloro-3-[(5-chloro-2-ethylsulfonylphenyl)methyl]-7-(hydroxymethyl)-6-(trifluoromethyl)quinazolin-4-one] | 240 nM

The molecules below were run on human endometrial cancer cell line MFE-280 (assay: Measurement of antitumor effect in MFE-280 cancer-bearing nude mice). Details: MFE-280 xenograft in BALB/c nude mice, 200 mg/kg orally once daily, 11th day.
Type: in vivo

Row | SMILES | TGI after 11 days
23 | CCS(=O)(=O)c1ccc(Cl)cc1Nn1cnc2ccc(OC(F)(F)F)cc2c1=O [Compound A-45, 3-(5-Chloro-2-ethylsulfonylanilino)-6-(trifluoromethoxy)quinazolin-4-one] | 72%
